system: angiotensin II receptor; assay: Angiotensin II receptor binding assay ([3H] angiotensin II displacement); details: 60 minutes at 25° C., pH 7.2, test concentration not given
Description: The inventive compounds were tested to measure their angiotensin II receptor binding capacity as follows.
1. Angiotensin II receptor binding assay
In accordance with the procedure disclosed in Chiu, A. T. et al., Eur. J. Pharm., 157, 13 ([…])t a ligand marked with a radioistope was reacted with an angiotensin II receptor and the reactant was filtered with a glass fiber to remove unreacted ligand. After washing the filter, the amount of the remaining isotope was measured to determine the binding activity of the ligand, as described below in detail.
(i) Isolation of angiotensin II receptor
Sprague-Dawley rats and Wistar rats of 250 to 350 g (from The Korea Research Institute of Chemical Technology) were tested and the test procedures were carried out at 4° C., unless otherwise specified. Adrenal gland was separated from the Sprague-Dawley rats (liver, in the case of Wistar rats) into cortex and medulla. The separated adrenal cortex and medulla were washed with a sucrose buffer solution (0.2M sucrose, 1 mM EDTA, 10 mM Tris, pH 7.2) and homogenized in the same buffer solution by using a Teflon pestle and a Brinkmann homogenizer. The homogenates were centrifuged at 3,000× g for 10 minutes to remove precipitates and further centrifuged at 12,000× g for 13 minutes. The final supernatants were centrifuged at 102,000× g for 1 hour to obtain precipitates, which were washed with a Tris buffer solution (50 mM Tris, 5 mM MgCl2, pH 7.2) and re-centrifuged at 102,000× g for 1 hour. The resulting precipitates were immediately processed at the following step or stored at -70° C.
The precipitates were suspended in a Tris buffer solution. The amount of protein was determined by using a Bio-Rad DC protein analyzing kit and the protein concentration was adjusted to the amounts of: 0.2 to 0.3 mg/ml (Sprague-Dawley rat: adrenal cortex), 1.5 to 2.0 mg/ml (Sprague-Dawley rat: adrenal medulla), and 1.5 to 2.0 mg/ml (Wistar rat: liver). To the suspension, bovine serum albumin (BSA) was added to a concentration of 0.25 wt % and the resultant was immediately processed at the following step or stored at -70° C.
(ii) Measurement of angiotensin II receptor binding capacity
50 μl (based on ligand) of [^3 H] angiotensin II (NEN, NET-446) and 10 μl of each of the test compounds with various concentrations were added to the buffer solution (50 mM Tris (pH 7.2), 5 mM MgCl2, 0.25% BSA) to adjust the final volume to be 0.5 ml. Losartan (Dup 753), which is disclosed in EP No. 400,974 issued to Merck, was used as the control compound. 100 μl of the receptor suspension was added thereto and the resulting solution was reacted for 60 minutes while stirring in a water bath at 25° C. 3 ml of cold buffer solution for analysis was added to cease the reaction. The isotope which was bound to the receptor was isolated from the resultant by using Brandel Cell Harvester System with Whatman glass fiber GF/C. After washing the filter, the radioactivity of the filter was determined by using a liquid scintillation counter. Binding inhibition (%) of the test compound was calculated as follows:
Binding Inhibition (%)=[{(T-B)-(S-B)}/(T-B)]×100
wherein T is the radioactivity (cpm) of the reaction product untreated with the test compound, S is the radioactivity (cpm) of the reaction product treated with the test compound, and B is the radioactivity (cpm) of blank test.

SMILES	Binding Inhibition (%)
CCCCc1nc(Cl)c(C(=O)c2ccc(C(OC)OC)c[n+]2[O-])n1Cc1ccc(-c2ccccc2-c2nn[nH]n2)cc1 [Compound 22, {2-butyl-5-chloro-3-[(2'-(1H-tetrazol-5-yl)biphenyl-4-yl)methyl]-3H-imidazol-4-yl}[5-(dimethoxymethyl)-1-oxypyridin-2-yl]methanone]	90.1
CCCCc1nc(Cl)c(C(=O)c2ccc(C=O)c[n+]2[O-])n1Cc1ccc(-c2ccccc2-c2nn[nH]n2)cc1 [Compound 23, {2-butyl-5-chloro-3-[(2'-(1H-tetrazol-5-yl)biphenyl-4-yl)methyl]-3H-imidazol-4-yl}(5-formyl-1-oxypyridin-2-yl)methanone]	93.4
CCCCc1nc(Cl)c(C(O)c2ccc(CO)c[n+]2[O-])n1Cc1ccc(-c2ccccc2-c2nn[nH]n2)cc1 (centres unmarked) [Compound 24, {2-butyl-5-chloro-3-[(2'-(1H-tetrazol-5-yl1)biphenyl1-4-yl)methyl1]-3H-imidazol-4-yl}(5-hydroxymethyl-1-oxypyridin-2-yl)methanol]	76.1
CCCCc1nc(Cl)c(C(O)c2ccc(C(OC)OC)cn2)n1Cc1ccc(-c2ccccc2-c2nnn[nH]2)cc1 (centres unmarked) [Compound 25, {2-butyl-5-chloro-3-[(2'-(1H-tetrazol-5-yl)biphenyl-4-yl)methyl]-3H-imidazol-4-yl}[5-(dimethoxymethyl)pyridin-2-yl]methanol]	87.8
CCCCc1nc(Cl)c(C(=O)c2ccc(C(OC)OC)cn2)n1Cc1ccc(-c2ccccc2-c2nnn[nH]2)cc1 [Compound 26, {2-butyl-5-chloro-3-[(2'-(1H-tetrazol-5-yl)biphenyl-4-yl)methyl]-3H-imidazol-4-yl}[5-(dimethoxymethyl)pyridin-2-yl]methanone]	94.0
CCCCc1nc(Cl)c(C(=O)c2ccc(C=O)cn2)n1Cc1ccc(-c2ccccc2-c2nn[nH]n2)cc1 [Compound 27, {2-butyl-5-chloro-3-[(2'-(1H-tetrazol-5-yl1)biphenyl-4-yl)methyl]-3H-imidazol-4-yl}(5-formylpyridin-2-yl)methanone]	81.3
CCCCc1nc(Cl)c(C(=O)c2ccc(CO)cn2)n1Cc1ccc(-c2ccccc2-c2nn[nH]n2)cc1 [Compound 28]	78.9
CCCCc1nc(Cl)c(C(=O)c2ccc(CCl)cn2)n1Cc1ccc(-c2ccccc2-c2nnn[nH]2)cc1 [Compound 29, {2-butyl-5-chloro-3-[(2'-(1H-tetrazol-5-yl)biphenyl-4-yl)methyl]-3H-imidazol-4-yl}[5-(chloromethyl)pyridin-2-yl]methanone]	83.6
CCCCc1nc(Cl)c(C(O)c2ccc(CO)cn2)n1Cc1ccc(-c2ccccc2-c2nnn[nH]2)cc1 (centres unmarked) [Compound 30, {2-butyl-5-chloro-3-[(2'-(1H-tetrazol-5-yl)biphenyl-4-yl)methyl]-3H-imidazol-4-yl}[5-(hydroxymethyl)pyridin-2-yl]methanol]	90.2
CCCCc1nc(Cl)c(C(=O)c2ccc(CN(CC)CC)c[n+]2[O-])n1Cc1ccc(-c2ccccc2-c2nn[nH]n2)cc1 [Compound 31, {2-butyl-5-chloro-3-[(2'-(1H-tetrazol-5-yl)biphenyl-4-yl)methyl]-3H-imidazol-4-yl}[5-(diethylamino)methyl-1-oxypyridin-2-yl]methanone]	97.8
CCCCc1nc(Cl)c(C(=O)c2ccc(C[N+]([O-])(CC)CC)c[n+]2[O-])n1Cc1ccc(-c2ccccc2-c2nn[nH]n2)cc1 [Compound 32, {2-butyl-5-chloro-3-[(2'-(1H-tetrazol-5-yl)biphenyl-4-yl)methyl]-3H-imidazol-4-yl}[5-((diethyl)(oxy)amino)methyl-1-oxypyridin-2-yl]methanone]	98.8
CCCCc1nc(Cl)c(C(O)c2ccc(CN(CC)CC)cn2)n1Cc1ccc(-c2ccccc2-c2nnn[nH]2)cc1 (centres unmarked) [Compound 33, {2-butyl-5-chloro-3-[(2'-(1H-tetrazol-5-yl)biphenyl-4-yl)methyl]-3H-imidazol-4-yl}[5-((diethylamino)methyl)pyridin-2-yl]methanol]	73.3
CCCCc1nc(Cl)c(C(=O)c2ccc(CN(CC)CC)cn2)n1Cc1ccc(-c2ccccc2-c2nnn[nH]2)cc1 [Compound 34, {2-butyl-5-chloro-3-[(2'-(1H-tetrazol-5-yl)biphenyl-4-yl)methyl]-3H-imidazol-4-yl}[5-((diethylamino)methyl)pyridin-2-yl]methanone]	95.6
CCCCc1nc(Cl)c(C(=O)c2ccc(C[N+]([O-])(CC)CC)cn2)n1Cc1ccc(-c2ccccc2-c2nn[nH]n2)cc1 [Compound 35, {2-butyl-5-chloro-3-[(2'-(1H-tetrazol-5-yl)biphenyl-4-yl)methyl]-3H-imidazo1-4-yl}{5-[((diethyl)(oxy)amino)methyl]pyridin-2-yl}methanone]	97.9
CCCCc1nc(Cl)c(C(O)c2cccc(C(=O)N(CC)CC)[n+]2[O-])n1Cc1ccc(-c2ccccc2-c2nn[nH]n2)cc1 (centres unmarked) [Compound 36, {2-butyl-5-chloro-3-[(2'-(1H-tetrazol-5-yl)biphenyl-4-yl)methyl]-3H-imidazol-4-yl}[6-(diethylamino)carbonyl-1-oxypyridin-2-yl]methanol]	75.4
CCCCc1nc(Cl)c(C(=O)c2cccc(C(=O)N(CC)CC)[n+]2[O-])n1Cc1ccc(-c2ccccc2-c2nn[nH]n2)cc1 [Compound 37, {2-butyl-5-chloro-3-[(2'-(1H-tetrazol-5-yl)biphenyl-4-yl)methyl]-3H-imidazol-4-yl}[6-(diethylamino)carbonyl-1-oxypyridin-2-yl]methanone]	92.8
CCCCc1nc(Cl)c(C(=O)c2cccc(C=NO)[n+]2[O-])n1Cc1ccc(-c2ccccc2-c2nn[nH]n2)cc1 [Compound 38, {2-butyl-5-chloro-3-[(2'-(1H-tetrazol-5-yl)biphenyl-4-yl)methyl]-3H-imidazol-4-yl}[6-(hydroxyimino)methyl-1-oxypyridin-2-yl]methanone]	95.4
CCCCc1nc(Cl)c(C(=O)c2ccc(C(OC)OC)c(C)[n+]2[O-])n1Cc1ccc(-c2ccccc2-c2nn[nH]n2)cc1 [Compound 39, {2-butyl-5-chloro-3-[(2'-(1H-tetrazol-5-yl)biphenyl-4-yl)methyl]-3H-imidazol-4-yl}[5-(dimethoxymethyl)-6-methyl-1-oxypyridin-2-yl]methanone]	87.5
CCCCc1nc(Cl)c(C(=O)c2ccc(C=O)c(C)[n+]2[O-])n1Cc1ccc(-c2ccccc2-c2nn[nH]n2)cc1 [Compound 40, {2-butyl-5-chloro-3-[(2'-(1H-tetrazol-5-yl)biphenyl-4-yl)methyl]-3H-imidazol-4-yl}(5-formyl-6-methyl-1-oxypyridin-2-yl)methanone]	90.4
CCCCc1nc(Cl)c(CO)n1Cc1ccc(-c2ccccc2-c2nn[nH]n2)cc1 [Dup 753, Losartan, reference compound]	48.0
